Laboratory results taken from US20180113115A1, “SCREENING ASSAYS BASED ON MAG AND/OR ABHD6 FOR SELECTING INSULIN SECRETION PROMOTING AGENT” (VAL-CHUM, LIMITED PARTNERSHIP, priority 2010, published 2018).

Tests used:
INS832/13 cells = experiment: RNAi-knockdown of ABHD6, insulin secretion; type: cell-based; settings: siRNA transfection; for glucose-stimulated insulin secretion: 10 mM glucose
Procedure: INS 832/13 cells were plated at a density of 150 000 cells/well in a 12-well plate, in 1 ml complete RPMI medium, one day prior to RNAi transfection. On the next day, RNAi duplexes and lipofectamine-RNAimax™ were prepared separately. Then 24 pmol of each RNAi duplex was diluted in 100 μl Opti-MEM™ without serum and mixed gently. And at the same time, 2 μl of lipofectamine-RNAimax was diluted in 100 μl Opti-MEM without serum and mixed gently. Then the diluted RNAi duplex and RNAi-max reagents were mixed gently (200 μl volume) and incubated at room temperature for 20 min. This 200 μl mixture (which gives a final concentration of […] of RNAi), prepared separately for each well, was then added to the corresponding well with approximately 30% confluent INS cells. Following RNAi transfection, cells were incubated for 16 to 72 h. in a CO2 incubator at 37° C. Then the cells were starved by incubation in RPMI-1640 with 10% FBS and 1 mM glucose for 2 h. followed by washing one time with KRBH (containing 1 mM glucose and 0.5% BSA) and pre-incubation with the same KRBH for 45 min. Finally for following insulin secretion, cells were incubated in the KRBH buffer with 1 mM or 10 mM glucose for 2 h. The media and the cells were collected for insulin and protein assay as described above. The ABHD6-directed siRNAs and the control siRNAs were obtained from Ambion (Catalog #4390771; […]tt (ABHD6-6 sense or SEQ ID NO: 9), […]gt (ABHD6-6 anti-sense or SEQ ID NO: 10), […]tt (ABHD6-5 sense or SEQ ID NO: 11), […]at (ABHD6-5 anti-sense or SEQ ID NO: 12)). ABHD6-6 sense and antisense oligos are used in a similar fashion. Control siRNAs, which are non-targeting siRNAs with limited sequence similarity to known genes were obtained from Ambion (Catalog #AM4613 and AM4642) and were used to transfect the cells as described above. Additionally, non-treated cells and pBS (plasmid vector Bluescript) transfected cells were used as controls as well. Results of insulin secretion and ABHD6 expression in ABHD6-siRNA transfected cells were compared with different controls.

TRPV1-R = settings: in vivo; cited from earlier work

Compound | basal insulin secretion (INS832/13 cells; 1 mM glucose) | glucose-stimulated insulin secretion (INS832/13 cells) | plasma insulin levels (TRPV1-R)
ABHD6-siRNA5: annealed ABHD6-5 sense (SEQ ID NO: 11) and anti-sense (SEQ ID NO: 12) oligos, ABHD6-directed siRNA from Ambion (sense CAGUUUGUAGAAUGCCUUATT; antisense UAAGGCAUUCUACAAACUGAT; chemistry not given here) | increased | significantly elevated | 
ABHD6-siRNA6: annealed ABHD6-6 sense (SEQ ID NO: 9) and anti-sense (SEQ ID NO: 10) oligos, ABHD6-directed siRNA from Ambion (sense CGGAAAUUGUUUUUGGAAATT; antisense UUUCCAAAAACAAUUUCCGGT; chemistry not given here) |  | significantly elevated | 
C=C(C)[C@]12C[C@@H](C)[C@@]34O[C@](Cc5ccccc5)(O[C@@H]1[C@@H]3C=C(COC(=O)Cc1ccc(O)c(OC)c1)C[C@]1(O)C(=O)C(C)=C[C@@H]41)O2 [resiniferatoxin] |  |  | elevates plasma insulin levels
